Reference: ChEMBL document CHEMBL1128814, “Non-peptide neuropeptide y antagonists derived from the histamine H2 agonist arpromidine: Role of the guanidine group” (Bioorg Med Chem Lett, 1995)
Activity calls are given as the source filed them. The calls are words filed in the database; no cut-off is given here.

How the values were obtained:
[1] = target: Histamine H2 receptor (Cavia porcellus) (UniProt P47747); assay: Intrinsic activity was evaluated against H2 receptor in guinea pig atrium; assay type: tissue-based; conditions: Cardiac atrium
[2] = target: T1, Neuropeptide Y receptor type 1 (Homo sapiens) (UniProt P25929); assay: Tested for inhibition of NPY-induced increase in [Ca2+] at 100 uM concentration in human erythroleukemia cells; assay type: functional
T1 sequence (whole entry): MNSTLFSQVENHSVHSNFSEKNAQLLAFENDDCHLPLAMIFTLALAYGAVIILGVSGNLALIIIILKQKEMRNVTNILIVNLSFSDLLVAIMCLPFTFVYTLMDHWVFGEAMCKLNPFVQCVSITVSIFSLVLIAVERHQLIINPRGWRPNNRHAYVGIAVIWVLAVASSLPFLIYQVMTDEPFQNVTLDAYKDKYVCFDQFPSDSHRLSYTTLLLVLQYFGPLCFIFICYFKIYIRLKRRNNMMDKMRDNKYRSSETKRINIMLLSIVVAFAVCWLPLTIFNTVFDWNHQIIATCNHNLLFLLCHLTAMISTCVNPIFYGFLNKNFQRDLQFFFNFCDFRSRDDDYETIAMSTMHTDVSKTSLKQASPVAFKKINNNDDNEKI

[3] = target: Histamine H2 receptor (Cavia porcellus) (UniProt P47747); assay: Histamine H2 receptor agonistic activity was evaluated by the inhibition of histamine-stimulated contraction in guinea pig atrium; assay type: functional, tissue-based; conditions: Cardiac atrium
[4] = target: Histamine H1 receptor (Cavia porcellus) (UniProt P31389); assay: Antagonistic activity (H1 antagonism) evaluated by the inhibition of histamine-stimulated contraction in guinea pig ileum at a concentration of 1E-7 - 1E-4 M; assay type: functional, tissue-based
[5] = target: T1, Neuropeptide Y receptor type 1 (Homo sapiens); assay: Tested for inhibition of NPY-induced increase in [Ca2+] at 10 uM concentration in human erythroleukemia cells; assay type: functional
[6] = target: T1, Neuropeptide Y receptor type 1 (Homo sapiens); assay: Tested for inhibition of NPY-induced increase in [Ca2+] at 10 uM concentration in human erythroleukemia cells; Not determined; assay type: functional
[7] = target: Histamine H2 receptor (Cavia porcellus) (UniProt P47747); assay: Histamine H2 receptor […] activity (positive chronotropism) was evaluated by the inhibition of histamine-stimulated contraction in guinea pig atrium at a concentration of 1E-7 - 1E-4 M; assay type: functional, tissue-based; conditions: Cardiac atrium
[8] = target: Histamine H2 receptor (Cavia porcellus) (UniProt P47747); assay: Intrinsic activity was evaluated against H2 receptor in guinea pig atrium at a concentration of 1E-7 - 1E-4 M; assay type: tissue-based; conditions: Cardiac atrium
[9] = target: T1, Neuropeptide Y receptor type 1 (Homo sapiens); assay: (§1) pA2 for inhibition of NPY-stimulated [Ca2+] mobilization in HEL cells; assay type: cell-based
[10] = target: T2, Neuropeptide Y receptor type 1 (Homo sapiens, UniProt P25929); assay: as §1; assay type: functional, cell-based; conditions: read-out: pA2 (converted)
T2 sequence (P25929 whole entry): T1 sequence (whole entry)

[11] = target: Histamine H2 receptor (Cavia porcellus) (UniProt P47747); assay: Histamine H2 receptor agonistic activity (positive chronotropism) was evaluated by the inhibition of histamine-stimulated contraction in guinea pig atrium; Inactive; assay type: functional, tissue-based; conditions: Cardiac atrium
[12] = target: T1, Neuropeptide Y receptor type 1 (Homo sapiens); assay: Tested for inhibition of NPY-induced increase in [Ca2+] at 100 uM concentration in human erythroleukemia cells; inactive; assay type: functional
[13] = target: Histamine H2 receptor (Cavia porcellus) (UniProt P47747); assay: Intrinsic activity was evaluated in guinea pig atrium at a concentration of 1E-7 - 1E-4 M; assay type: tissue-based; conditions: Cardiac atrium
[14] = target: T1, Neuropeptide Y receptor type 1 (Homo sapiens); assay: Tested for inhibition of NPY-induced increase in [Ca2+] at 10 uM concentration in human erythroleukemia cells; Not determined; inactive; assay type: functional
[15] = target: T1, Neuropeptide Y receptor type 1 (Homo sapiens); assay: Tested for inhibition of NPY-induced increase in [Ca2+] at 10 uM concentration in human erythroleukemia cells; inactive; assay type: functional

Sequence of Histamine H2 receptor (Cavia porcellus) (P47747 whole entry): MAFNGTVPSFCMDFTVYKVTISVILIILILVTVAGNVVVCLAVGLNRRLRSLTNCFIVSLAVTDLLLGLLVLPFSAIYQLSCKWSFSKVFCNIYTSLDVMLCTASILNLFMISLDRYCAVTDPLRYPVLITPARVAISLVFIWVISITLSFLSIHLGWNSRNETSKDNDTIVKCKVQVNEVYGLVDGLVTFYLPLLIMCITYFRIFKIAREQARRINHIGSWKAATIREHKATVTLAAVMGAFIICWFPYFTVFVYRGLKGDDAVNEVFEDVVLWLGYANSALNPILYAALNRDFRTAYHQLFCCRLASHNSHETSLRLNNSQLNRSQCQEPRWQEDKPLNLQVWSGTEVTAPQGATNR
Sequence of Histamine H1 receptor (Cavia porcellus) (P31389 whole entry): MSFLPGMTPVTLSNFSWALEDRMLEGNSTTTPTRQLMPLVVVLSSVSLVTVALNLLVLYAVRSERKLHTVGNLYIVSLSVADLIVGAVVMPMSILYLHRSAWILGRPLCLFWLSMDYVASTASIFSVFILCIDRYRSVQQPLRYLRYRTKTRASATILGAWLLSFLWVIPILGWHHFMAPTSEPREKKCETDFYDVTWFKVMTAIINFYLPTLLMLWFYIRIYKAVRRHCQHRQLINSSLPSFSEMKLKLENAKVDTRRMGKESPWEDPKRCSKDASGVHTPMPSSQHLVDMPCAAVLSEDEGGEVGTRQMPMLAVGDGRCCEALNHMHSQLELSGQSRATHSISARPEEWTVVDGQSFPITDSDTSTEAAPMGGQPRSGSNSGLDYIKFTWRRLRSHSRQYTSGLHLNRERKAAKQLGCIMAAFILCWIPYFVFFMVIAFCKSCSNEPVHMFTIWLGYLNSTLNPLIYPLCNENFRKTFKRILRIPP

Row | Compound | Intrinsic activity [1] | inhibition [2] | pD2 [3] | pKB [4] | inhibition [5] | also measured
1 | N=C(CCCCc1c[nH]cn1)NCCC(c1ccc(F)cc1)c1ccccn1 (stereo unspecified) | 0.6 | 27% | 6.47 | 6.56 | 5% | –
2 | Clc1ccc(C(CCC/N=C(/NCCCc2c[nH]cn2)Nc2ccccc2)c2ccccn2)cc1Cl (stereo unspecified) | – | 78% | – | 5.5 | – | inhibition [6]: 48%; pKB [7]: 4.97; Intrinsic activity [8]: 1
3 | N=C(NCCCc1c[nH]cn1)NCCC(c1ccc(Cl)c(Cl)c1)c1ccccn1 (stereo unspecified) | 1 | 93% | 8.19 | 7.1 | 81% | pKB [9]: 6.25
4 | N=C(NCCCc1c[nH]cn1)NCCC(c1cc(F)cc(F)c1)c1ccccn1 (stereo unspecified) | 1 | 62% | 8.05 | 6.56 | – | Kb [10]: 37.2 µM
5 | N=C(NCCCc1c[nH]cn1)NCCCC(c1ccccc1)c1ccccn1 (stereo unspecified) | 1 | 84% | 6.61 | 6.06 | 8% | –
6 | N=C(NCCCc1c[nH]cn1)NCCCC(c1ccc(Cl)c(Cl)c1)c1ccccn1 (stereo unspecified) | 1 | 78% | 6.67 | 7.46 | 31% | –
7 | CCOC(=O)N/C(=N\CCC(c1ccc(F)cc1)c1ccccn1)NCCCc1c[nH]cn1 (stereo unspecified) | – | 4% | – | 5.3 | 2% | pD2 [11]: inactive
8 | N=C(NCCCc1c[nH]cn1)NCCC(c1ccccc1)c1ccccn1 (stereo unspecified) | 1 | 69% | 7.39 | 7.01 | 2% | –
9 | CN/C(=N\CCC(c1ccc(F)cc1)c1ccccn1)NCCCc1c[nH]cn1 (stereo unspecified) | 1 | 13% | 5.65 | 5.08 | – | –
10 | Fc1ccc(C(CCCNCCCc2c[nH]cn2)c2ccccn2)cc1 (stereo unspecified) | 0.5 | 24% | 5.17 | 6.43 | – | –
11 | NC(=O)N/C(=N\CCC(c1ccc(F)cc1)c1ccccn1)NCCCc1c[nH]cn1 (stereo unspecified) | – | 62% | – | – | 2% | –
12 | c1ccc(C(CCC/N=C(/NCCCc2c[nH]cn2)NC2CCCCC2)c2ccccn2)cc1 (stereo unspecified) | 0.25 | 53% | 4.49 | 5.56 | 6% | –
13 | N=C(NCCCc1c[nH]cn1)NCCC(c1ccc(Br)cc1)c1ccccn1 (stereo unspecified) | 1 | 85% | 7.48 | 6.92 | 27% | –
14 | N=C(N)NCCC(c1ccc(F)cc1)c1ccccn1 (stereo unspecified) | – | – | – | 6.44 | – | inhibition [12]: inactive; pD2 [11]: inactive
15 | Brc1ccc(C(CC/N=C(/NCCCc2c[nH]cn2)Nc2ccccc2)c2ccccn2)cc1 (stereo unspecified) | – | 76% | – | 5.81 | 24% | pKB [7]: 5.14; Intrinsic activity [13]: 1
16 | N=C(CCC(c1ccccc1)c1ccccn1)NCCCc1c[nH]cn1 (stereo unspecified) | 1 | 45% | 6.5 | 6.45 | – | –
17 | Brc1ccc(C(CC/N=C(/NCCCc2c[nH]cn2)NC2CCCCC2)c2ccccn2)cc1 (stereo unspecified) | 0.65 | 82% | 4.69 | 5.42 | 36% | –
18 | Cc1ccc(CC(CC/N=C(/NCCCc2c[nH]cn2)NC2CCCCC2)c2ccccn2)cc1 (stereo unspecified) | 1 | 75% | – | 5.4 | 24% | pKB [7]: 5.93
19 | O=C(CCC(c1ccc(F)cc1)c1ccccn1)NCCCc1c[nH]cn1 (stereo unspecified) | – | – | < 3 | 3.97 | – | Intrinsic activity [8]: 1; inhibition [14]: inactive
20 | CN/C(=N\CCCC(c1ccc(Cl)c(Cl)c1)c1ccccn1)NCCCc1c[nH]cn1 (stereo unspecified) | 1 | 41% | 5.58 | 6.16 | – | –
21 | Clc1ccc(C(CCC/N=C(/NCCCc2c[nH]cn2)NC2CCCCC2)c2ccccn2)cc1Cl (stereo unspecified) | 1 | 87% | 4.65 | 5.76 | – | inhibition [6]: 30%
22 | N#CN/C(=N\CCC(c1ccc(F)cc1)c1ccccn1)NCCCc1c[nH]cn1 (stereo unspecified) | – | 13% | – | – | – | inhibition [15]: inactive; pD2 [11]: inactive
23 | Cc1ccc(CC(CC/N=C(\N)NCCCc2c[nH]cn2)c2ccccn2)cc1 (stereo unspecified) | 1 | – | 5.81 | 6.4 | 23% | –
24 | N=C(NCCCc1c[nH]cn1)NCCC(c1ccc(F)cc1)c1ccccn1 (stereo unspecified) | 1 | 75% | 8.01 | 7.65 | 18% | –
25 | CN(CCC(c1ccc(F)cc1)c1ccccn1)C(=N)NCCCc1c[nH]cn1 (stereo unspecified) | 0.8 | 42% | 5.4 | 5.96 | – | –
26 | CN/C(=N\CCC(c1ccc(Br)cc1)c1ccccn1)NCCCc1c[nH]cn1 (stereo unspecified) | 0.9 | 38% | 5.75 | 5.71 | – | inhibition [15]: inactive
